Experiments:
[1] = biological target: T1, human TRPV1 receptor (hTRPV1) (Homo sapiens, UniProt Q8NER1); experiment: Capsaicin activation assay (Ca2+ influx, FLIPR); assay type: cell-based; conditions: 0.05 μM capsaicin, 1321N1 cells expressing hTRPV1
T1 construct: expressed in transfected cells
Protocol: Dulbecco's modified Eagle medium (D-MEM) (with 4.5 mg/mL glucose) and fetal bovine serum were obtained from Hyclone Laboratories, Inc. (Logan, Utah). Dulbecco's phosphate-buffered saline (D-PBS) (with 1 mg/mL glucose and 3.6 mg/l Na pyruvate, without phenol red), L-glutamine, hygromycin B, and Lipofectamine® were obtained from Life Technologies (Grand Island, N.Y.). G418 sulfate was obtained from Calbiochem-Novabiochem Corp. (San Diego, Calif.). Capsaicin (8-methyl-N-vanillyl-6-nonenamide) was obtained from Sigma-Aldrich, Co. (St. Louis, Mo.). Fluo-4 AM (N-[4-[6-[(acetyloxy)methoxy]-2,7-difluoro-3-oxo-3H-xanthen-9-yl]-2-[2-[2-[bis[2-[(acetyloxy)methoxy]-2-oxyethyl]amino]-5-methyl-phenoxy]ethoxy]phenyl]-N-[2-[(acetyloxy)methoxy]-2-oxyethyl]-glycine, (acetyloxy)methyl ester) was purchased from Molecular Probes (Eugene, Oreg.).
The cDNAs for the human TRPV1 receptor (hTRPV1) were isolated by reverse transcriptase-polymerase chain reaction (RT-PCR) from human small intestine poly A+RNA supplied by Clontech (Palo Alto, Calif.) using primers designed surrounding the initiation and termination codons identical to the published sequences (Hayes et al. Pain 2000, 88, 205-215). The resulting cDNA PCR products were subcloned into pCIneo mammalian expression vector (Promega) and fully sequenced using fluorescent dye-terminator reagents (Prism, Perkin-Elmer Applied Biosystems Division) and a Perkin-Elmer Applied Biosystems Model 373 DNA sequencer or Model 310 genetic analyzer. Expression plasmids encoding the hTRPV1 cDNA were transfected individually into 1321N1 human astrocytoma cells using Lipofectamine®. Forty-eight hours after transfection, the neomycin-resistant cells were selected with growth medium containing 800 μg/mL Geneticin (Gibco BRL). Surviving individual colonies were isolated and screened for TRPV1 receptor activity. Cells expressing recombinant homomeric TRPV1 receptors were maintained at 37° C. in D-MEM containing 4 mM L-glutamine, 300 μg/mL G418 (Cal-biochem) and 10% fetal bovine serum under a humidified 5% CO2 atmosphere.
The functional activity of compounds at the TRPV1 receptor was determined with a Ca^2+ influx assay and measurement of intracellular Ca^2+ levels ([Ca^2+]i). All compounds were tested over an 11-point half-log concentration range. Compound solutions were prepared in D-PBS (4× final concentration), and diluted serially across 96-well v-bottom tissue culture plates using a Biomek 2000 robotic automation workstation (Beckman-Coulter, Inc., Fullerton, Calif.). A 0.2 μM solution of the TRPV1 agonist capsaicin was also prepared in D-PBS. The fluorescent Ca^2+ chelating dye Fluo-4 AM was used as an indicator of the relative levels of [Ca^2+]i in a 96-well format using a Fluorescence Imaging Plate Reader (FLIPR) (Molecular Devices, Sunnyvale, Calif.). Cells were grown to confluency in 96-well black-walled tissue culture plates. Then, prior to the assay, the cells were loaded with 100 μL per well of Fluo-4 AM (2 μM, in D-PBS) for 1-2 hours at 23° C. Washing of the cells was performed to remove extracellular Fluo-4 AM (2×1 mL D-PBS per well), and afterward, the cells were placed in the reading chamber of the FLIPR instrument. 50 μL of the compound solutions were added to the cells at the 10 second time mark of the experimental run. Then, after a 3-minute time delay, 50 μL of the capsaicin solution was added at the, 190 second time mark (0.05 μM final concentration)(final volume=200 μL) to challenge the TRPV1 receptor. Time length of the experimental run was 240 seconds. Fluorescence readings were made at 1 to 5 second intervals over the course of the experimental run. The peak increase in relative fluorescence units (minus baseline) was calculated from the 190 second time mark to the end of the experimental run, and expressed as a percentage of the 0.05 μM capsaicin (control) response. […]

[2] = Rat telemetry protocol (core body temperature); assay type: in vivo; conditions: core body temperature of rats at one hour post dosing (100 μmol/kg, p.o.), relative to vehicle
Protocol: Male, Sprague Dawley rats, 225-250 grams were anesthetized with Sevoflurane (Abbott Laboratories). Rats were placed on a heating pad and covered with a sterile surgical drape. A ventral midline abdominal incision was made and sterile cotton tip applicators were used to gently move internal tissue and expose the abdominal aorta for implantation of the telemetry catheter (Data Sciences International; TL11M2-050-PXT). Blood flow was temporarily stopped to the lower extremities (5-7 min) with Diffenbach clamps to allow the insertion of the telemetry catheter into the abdominal aorta. Once inserted, a sterile cellulose patch was placed over the catheter/aorta and secured using a small amount of tissue adhesive (Vetbond, 3M). Once catheter placement was complete, the clamps were removed and blood flow was restored to the lower extremities. The transmitter was placed in the intraperitoneal cavity. The transmitter suture rib was sewn into the abdominal sutures to secure it in place. The skin was closed using sterile wound clips and the animal removed from Sevoflurane. Buprenex ([…] s.c.; Phoenix) was administered for post-operative analgesia. Animals were maintained on a heating pad until ambulatory, and then individually housed with food and water ad lib. Surgical staples were removed after 7-10 days post-implantation. Rats were allowed a 2-week post-surgical recovery period before treatment with test compound. Oral dosing (p.o.) was at time zero, with rats receiving a single dose of vehicle (10% EtOH, 20% Tween-80, 70% PEG-400) or a 100 μmol/kg dose of compound dissolved in vehicle. Temperature measurements were recorded every 15 minutes for the duration of the study (24 hours).
The term “core body temperature” as used herein, means the temperature measured in the intraperitoneal cavity.

T1 sequence (Q8NER1 whole entry): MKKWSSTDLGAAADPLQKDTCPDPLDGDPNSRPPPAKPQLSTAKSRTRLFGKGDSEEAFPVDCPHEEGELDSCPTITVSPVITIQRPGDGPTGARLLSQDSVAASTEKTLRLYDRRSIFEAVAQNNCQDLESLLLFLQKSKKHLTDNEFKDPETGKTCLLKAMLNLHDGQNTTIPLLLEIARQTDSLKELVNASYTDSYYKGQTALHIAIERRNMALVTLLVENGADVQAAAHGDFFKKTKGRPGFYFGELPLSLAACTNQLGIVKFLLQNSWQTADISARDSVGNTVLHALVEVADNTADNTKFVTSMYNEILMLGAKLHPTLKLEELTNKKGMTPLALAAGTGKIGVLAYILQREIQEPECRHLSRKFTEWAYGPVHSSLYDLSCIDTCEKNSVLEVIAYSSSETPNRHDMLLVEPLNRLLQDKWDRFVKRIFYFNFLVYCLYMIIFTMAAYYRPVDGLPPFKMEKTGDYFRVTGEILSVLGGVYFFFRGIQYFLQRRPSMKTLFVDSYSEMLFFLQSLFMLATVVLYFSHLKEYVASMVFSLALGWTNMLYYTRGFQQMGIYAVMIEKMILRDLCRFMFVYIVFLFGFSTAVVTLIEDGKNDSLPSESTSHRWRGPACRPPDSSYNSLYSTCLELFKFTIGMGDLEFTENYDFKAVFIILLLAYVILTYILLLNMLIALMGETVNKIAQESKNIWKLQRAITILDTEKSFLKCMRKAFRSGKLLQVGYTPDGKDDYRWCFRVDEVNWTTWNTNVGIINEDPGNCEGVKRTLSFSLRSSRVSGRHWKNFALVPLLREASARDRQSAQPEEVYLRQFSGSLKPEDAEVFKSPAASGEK

| SMILES | IC50 [1] [nM] | Δ Temp [2] [°C] |
| --- | --- | --- |
| CC1(C)C[C@@H](NC(=O)Nc2cccc3cnc(N)cc23)c2ccc(C(F)(F)F)cc2O1 [Example 90, N-(3-aminoisoquinolin-5-yl)-N′-[(4R)-2,2-dimethyl-7-(trifluoromethyl)-3,4-dihydro-2H-chromen-4-yl]urea] | 17 | 1.0 |
| O=C(Nc1cccc2ccncc12)N[C@@H]1CC(CF)(CF)Oc2cc(C(F)(F)F)ccc21 [Example 93, N-[(4R)-2,2-bis(fluoromethyl)-7-(trifluoromethyl)-3,4-dihydro-2H-chromen-4-yl]-N′-isoquinolin-8-ylurea] | 32 | 1.1 |
| O=C(Nc1cccc2c1C[C@@H](O)CC2)N[C@@H]1CC(CF)(CF)Oc2cc(Cl)ccc21 [Example 104, N-[(4R)-7-chloro-2,2-bis(fluoromethyl)-3,4-dihydro-2H-chromen-4-yl]-N′-[(7S)-7-hydroxy-5,6,7,8-tetrahydronaphthalen-1-yl]urea] | 25 | 1.1 |
| O=C(Nc1cccc2c1C[C@@H](O)CC2)N[C@@H]1CC(CF)(CF)Oc2c(F)cccc21 [Example 107, N-[(4R)-8-fluoro-2,2-bis(fluoromethyl)-3,4-dihydro-2H-chromen-4-yl]-N′-[(7S)-7-hydroxy-5,6,7,8-tetrahydronaphthalen-1-yl]urea] | 53 | 0.9 |
| CC1(C)C[C@@H](NC(=O)Nc2cccc3c2C[C@@H](O)CC3)c2ccc(F)c(Cl)c2O1 [Example 109, N-[(4R)-8-chloro-7-fluoro-2,2-dimethyl-3,4-dihydro-2H-chromen-4-yl]-N′-[(7S)-7-hydroxy-5,6,7,8-tetrahydronaphthalen-1-yl]urea] | 21 | 1.2 |
| O=C(Nc1cccc2c1C[C@@H](O)CC2)N[C@@H]1CC(CF)(CF)Oc2cc(C(F)(F)F)ccc21 [Example 112, N-[(4R)-2,2-bis(fluoromethyl)-7-(trifluoromethyl)-3,4-dihydro-2H-chromen-4-yl]-N′-[(7S)-7-hydroxy-5,6,7,8-tetrahydronaphthalen-1-yl]urea] | 34 | 1.4 |
| CC1(C)C[C@@H](NC(=O)Nc2cccc3c2C[C@H](O)CC3)c2ccc(OC(F)(F)F)cc2O1 [Example 115, N-[(4R)-2,2-dimethyl-7-(trifluoromethoxy)-3,4-dihydro-2H-chromen-4-yl]-N′-[(7R)-7-hydroxy-5,6,7,8-tetrahydronaphthalen-1-yl]urea] | 23 | 1.2 |
| CC1(C)C[C@@H](NC(=O)Nc2cccc3c2C[C@@H](O)CC3)c2ccc(OC(F)(F)F)cc2O1 [Example 116, N-[(4R)-2,2-dimethyl-7-(trifluoromethoxy)-3,4-dihydro-2H-chromen-4-yl]-N′-[(7S)-7-hydroxy-5,6,7,8-tetrahydronaphthalen-1-yl]urea] | 13 | 1.1 |
| Cc1cc2c(NC(=O)NC3CC(C)(C)Oc4c3ccc(N3CCCCC3)c4F)cccc2cn1 (centres unmarked) [Example 117, N-(8-fluoro-2,2-dimethyl-7-piperidin-1-yl-3,4-dihydro-2H-chromen-4-yl)-N′-(3-methylisoquinolin-5-yl)urea] | 82 | 1.0 |

Second part, led by results:

| IC50 [1] [nM] | SMILES | Δ Temp [2] [°C] |
| --- | --- | --- |
| 18 | CCC1(CC)C[C@@H](NC(=O)Nc2cccc3ccncc23)c2ccc(F)cc2O1 [Example 82, N-[(4R)-2,2-diethyl-7-fluoro-3,4-dihydro-2H-chromen-4-yl]-N′-isoquinolin-8-ylurea] | 1.5 |
| 29 | O=C(Nc1cccc2c1C[C@H](O)CC2)N[C@@H]1CC(CF)(CF)Oc2cc(F)ccc21 [Example 89, N-[(4R)-7-fluoro-2,2-bis(fluoromethyl)-3,4-dihydro-2H-chromen-4-yl]-N′-[(7R)-7-hydroxy-5,6,7,8-tetrahydronaphthalen-1-yl]urea] | 1.3 |
| 21 | Cn1ncc2c(NC(=O)N[C@@H]3CC(CF)(CF)Oc4cc(OC(F)(F)F)ccc43)cccc21 [Example 92, N-[(4R)-2,2-bis(fluoromethyl)-7-(trifluoromethoxy)-3,4-dihydro-2H-chromen-4-yl]-N′-(1-methyl-1H-indazol-4-yl)urea] | 0.8 |
| 7 | Cc1cc2c(NC(=O)N[C@@H]3CC(C)(C)Oc4c3ccc(C(F)(F)F)c4F)cccc2cn1 [Example 99, N-[(4R)-8-fluoro-2,2-dimethyl-7-(trifluoromethyl)-3,4-dihydro-2H-chromen-4-yl]-N′-(3-methylisoquinolin-5-yl)urea] | 0.8 |
| 21 | CC1(C)C[C@@H](NC(=O)Nc2cccc3c2C[C@@H](O)CC3)c2ccc(Cl)cc2O1 [Example 103, N-[(4R)-7-chloro-2,2-dimethyl-3,4-dihydro-2H-chromen-4-yl]-N′-[(7S)-7-hydroxy-5,6,7,8-tetrahydronaphthalen-1-yl]urea] | 1.3 |
| 35 | O=C(Nc1cccc2c1C[C@H](O)CC2)N[C@@H]1CC(CF)(CF)Oc2cc(Cl)ccc21 [Example 105, N-[(4R)-7-chloro-2,2-bis(fluoromethyl)-3,4-dihydro-2H-chromen-4-yl]-N′-[(7R)-7-hydroxy-5,6,7,8-tetrahydronaphthalen-1-yl]urea] | 1.1 |
| 21 | CC1(C)C[C@@H](NC(=O)Nc2cccc3c2C[C@H](O)CC3)c2ccc(F)c(Cl)c2O1 [Example 108, N-[(4R)-8-chloro-7-fluoro-2,2-dimethyl-3,4-dihydro-2H-chromen-4-yl]-N′-[(7R)-7-hydroxy-5,6,7,8-tetrahydronaphthalen-1-yl]urea] | 1.2 |
| 15 | CC1(C)C[C@@H](NC(=O)Nc2cccc3c2C[C@@H](O)CC3)c2ccc(F)c(F)c2O1 [Example 114, N-[(4R)-7,8-difluoro-2,2-dimethyl-3,4-dihydro-2H-chromen-4-yl]-N′-[(7S)-7-hydroxy-5,6,7,8-tetrahydronaphthalen-1-yl]urea] | 0.6 |
| 35 | Cc1cc2c(NC(=O)N[C@@H]3CC(C)(C)Oc4cc(C(F)(F)F)ccc43)c(F)ccc2cn1 [Example 125, N-[(4R)-2,2-dimethyl-7-(trifluoromethyl)-3,4-dihydro-2H-chromen-4-yl]-N′-(6-fluoro-3-methylisoquinolin-5-yl)urea] | 0.5 |
| 15 | Cc1cc2c(NC(=O)N[C@@H]3C[C@@](C)(CF)Oc4cc(C(F)(F)F)ccc43)cccc2cn1 [Example 129, N-[(2S,4R)-2-(fluoromethyl)-2-methyl-7-(trifluoromethyl)-3,4-dihydro-2H-chromen-4-yl]-N′-(3-methylisoquinolin-5-yl)urea] | 0.7 |

— patent US8609692B2, “TRPV1 antagonists” (AbbVie Inc., priority 2008, dated 2013)
